Measured values taken from US20240024301A1, “METHODS OF TREATING HEAD AND NECK SQUAMOUS CELL CARCINOMA” (Kura Oncology, Inc., priority 2022, published 2024).

Assays:
[1] = tested on: HSC2 (H1047R); assay: PI3K-mTOR signaling by immunoblot; format: cell-based; details: 1 h and 24 h
Experimental: PI3K-mTOR Signaling in PIK3CA-mutant HSC2 Cell Line. The PIK3CA-mutant HNSCC cell line HSC2 (H1047R) was treated with the tipifarnib-alpelisib combination and mTOR activity was assessed by immunoblot.

[2] = tested on: PIK3CA-mutant CAL33 cells; assay: Immunoblots of MAPK/PI3K pathway components and apoptotic markers; format: cell-based; details: alpelisib 0, 1, 2, 6, 24 hours, absence or presence of tipifarnib (48-hour treatment)
Experimental: (§1) Immunoblots of MAPK/PI3K pathway components and apoptotic markers in PIK3CA-mutant CAL33 cells treated with alpelisib (BYL-719) for 0, 1, 2, 6, and 24 hours in the absence or presence of tipifarnib (48-hour treatment) are shown in FIG. 2A. A shift in Rheb and HRas protein mobility is indicative of defarnesylation. Generally, immunoblotting was performed as follows: Cell lysates were prepared on ice by washing cells once with PBS, resuspending in 1× cell lysis buffer (Cell Signaling Technology #9803) or RIPA buffer supplemented with Halt protease inhibitor cocktail (Thermo Scientific #78430) and briefly sonicated or vortexed. Lysates were cleared by centrifugation (maximum speed, 10 min) and protein concentration was determined by BCA assay (Pierce). Lysate (20-60 μg) was loaded onto 4-12% Bis-Tris gels (NuPAGE, Invitrogen) for electrophoresis and immunoblotting. When RAS was evaluated, active RAS was detected using Thermo Scientific kit #16117. Membrane and cytosolic fractions were isolated using the Mem-PER Plus Membrane Protein Extraction Kit (Thermo Scientific kit #89842).
However, by 24 hours, phosphorylation of these proteins partially or completely rebounded. […]

[3] = tested on: PIK3CA-mutant CAL33 tumors; assay: Immunoblot and immunohistochemistry of treated CAL33 xenograft tumors; format: in vivo, athymic mice; details: tipifarnib 60 mg/kg BID, 10 days
Experimental: To assess the underlying mechanism of tumor regression, the PIK3CA-mutant CAL33 tumors were treated with tipifarnib (60 mg/kg BID), alpelisib (40 mg/kg QD), or the combination for 10 days. On day 10, tumors were collected from all cohorts at 2 and 24 hours after the final dose of alpelisib for immunohistochemistry and immunoblot analysis. […] Addition of tipifarnib blocked this rebound and promoted cell cycle arrest as indicated by decreased Rb phosphorylation.

[4] = tested on: CAL33 xenograft tumors; assay: Immunohistochemistry of CAL33 CDX tumor samples; format: in vivo, mice; details: alpelisib 40 mg/kg QD, tipifarnib 60 mg/kg BID, or the combination, 10 days
Experimental: CAL33 xenograft tumors treated with alpelisib (40 mg/kg QD), tipifarnib (60 mg/kg BID), or the combination, for 10 days were subjected to immunohistochemistry analysis to assess levels of cell proliferation and apoptosis.
Fixation of tumor samples was performed by zinc formalin (Z-Fix, Anatech) and tissues were paraffin-embedded; samples were sectioned into 5 μm sections. Samples were deparaffinized, hydrated with graded ethanols, and the endogenous peroxidase was blocked with 3% H2O2 in 70% ethanol. After washing with distilled water, antigen retrieval was performed with IHC antigen retrieval solution (ThermoFisher Scientific, #00-4955-58) in a microwave at the high setting. Slides were then washed with water and PBS, and incubated with the primary and secondary antibodies, and developed with the ABC reagent (Vector Laboratories, #PK-6100) and the DAB substrate kit (Vector Laboratories, #SK-4105). The following antibodies were used: Cleaved PARP (Cell Signaling Technology #9661, 1:400 dilution) and Ki67 (DACO #M7240, 1:50). Percent positive cells in three fields per slide were counted using a microscope.

[5] = tested on: BICR22 cells; assay: Immunoblots of MAPK/PI3K pathway components and apoptotic markers; format: cell-based; details: BICR22 (PIK3CA copy gain); alpelisib 0, 1, 24 hours, absence or presence of tipifarnib (48-hour treatment)
Experimental: as §1
(§2) Immunoblots of MAPK/PI3K pathway components and apoptotic markers in high HRas protein (i.e., overexpression of wild-type HRas protein) HNSCC cell line SCC9 cells and in PIK3CA copy gain (amplified) BICR22 cells are shown in FIG. 2B and FIG. 2D, respectively. […]

[6] = tested on: SCC9 cells; assay: as above; format: cell-based; details: SCC9 (HRas high); alpelisib 0, 1, 24 hours, absence or presence of tipifarnib (48-hour treatment)
Experimental: as §1, §2

[7] = tested on: Rheb protein; assay: Lysosome extraction by density gradient ultracentrifugation and immunoblot; format: cell-based; details: CAL33 cells, versus DMSO
Description: Active Rheb protein is thought to localize to lysosomes to regulate mTOR activity. Density gradient ultracentrifugation was utilized to extract lysosomes from CAL33 cells treated with DMSO or tipifarnib. Lysosomes were lysed and subjected to immunoblot analysis alongside whole-cell lysate (WCL), FIG. 4. LAMP1 is a lysosome-specific marker and is used in this assay.

[8] = tested on: cell lines harboring PIK3CA mutation or amplification; assay: Growth of PIK3CA-altered HNSCC cell lines, monolayer and spheroid cultures; format: cell-based
Experimental: (§3) Because a farnesyltransferase inhibitor may block hyperactivated growth factor signaling at multiple nodes, including HRas protein and Rheb protein, the impact of tipifarnib on the growth of PIK3CA-altered HNSCC models and HRAS-mutant HNSCC models in vitro and in vivo was examined. For tumor spheroid growth assays, cells were resuspended in 4% Matrigel and seeded in 96-well ultralow attachment plates at a density of 1-1.5K cells/well. The following day, spheroids were treated with alpelisib and/or tipifarnib and baseline growth measured using 3D Cell Titer Glo reagent (Promega). Spheroids were incubated with drug for 7 days and a final CTG reading taken. Percentage growth was calculated by[(Ti−Tz)/(C−Tz)]×100 for concentrations for which Ti>/=Tz and [(Ti−Tz)/Tz]×100 for concentrations for which Ti<Tz, where Tz=time zero, C=control growth, and Ti=test growth at each drug concentration. […] Consistently, in PIK3CA mutant/amplified PDX models, the tipifarnib-alpelisib doublet led to deeper antitumor responses compared to alpelisib monotherapy.

[9] = molecular target: geranylgeranyltransferase type 1 (Homo sapiens, UniProt P53609); details: cited from earlier work
[10] = tested on: HRAS and RHEB; assay: Subcellular fractionation and immunoblot of cytosol and membrane fractions; format: cell-based; details: CAL33, BICR22, and SCC9 cells; 1 μM tipifarnib (48 hr)
Experimental: as §1
CAL33, BICR22, and SCC9 cells were treated with DMSO, 250 nM alpelisib (24 hr), 1 μM tipifarnib (48 hr), or the combination.

[11] = tested on: UM-SCC-17B (Q61L); assay: HRAS-mutant cell line spheroid growth, checkerboard, 7 days; format: cell-based
Experimental: as §3
Inhibition of HRAS-mutant cell line spheroid growth by tipifarnib and/or alpelisib. The HRAS-mutant HNSCC cell line UM-SCC-17B (Q61L) was cultured as 3D tumor spheroids and treated with tipifarnib and/or alpelisib in a checkerboard dose-response fashion for 7 days.

| Structure (SMILES) | mTOR activity (phospho-S6K and S6) and PARP cleavage [1] | Pathway activity, cell cycle and apoptotic markers (immunoblot) [2] | mTOR activity (4EBP1, S6 phosphorylation) ([3]; alpelisib 40 mg/kg QD, tumors collected 2 and 24 hours after final alpelisib dose) | Cleaved PARP (% positive cells) [4] [% positive cells] | Ki67 (% positive cells) [4] [% positive cells] | Pathway activity, cell cycle and apoptotic markers (immunoblot) [5] | Pathway activity, cell cycle and apoptotic markers (immunoblot) [6] | Lysosomal localization of Rheb protein [7] | Farnesylation of HRAS and RHEB (immunoblot) [3] | Proliferation / cytotoxicity [8] | Inhibition of geranylgeranyltransferase type 1 [9] | Membrane localization of HRAS and RHEB [10] | Cytotoxicity in 3D tumor spheroids [11] |
| --- | --- | --- | --- | --- | --- | --- | --- | --- | --- | --- | --- | --- | --- |
| Cc1nc(NC(=O)N2CCC[C@H]2C(N)=O)sc1-c1ccnc(C(C)(C)C(F)(F)F)c1 [Alpelisib, (2S)—N^1-[4-Methyl-5-[2-(2,2,2-trifluoro-1,1-dimethylethyl)-4-pyridinyl]-2-thiazolyl]-1,2-pyrrolidinedicarboxamide] | transiently inhibited | rapidly inhibited the activity of AKT, mTOR, and ERK | transiently inhibited mTOR activity | 5.1 ± 0.4 | 53.7 ± 9.8 | transiently reduced | transiently reduced |  |  |  |  |  |  |
| Cn1cncc1[C@@](N)(c1ccc(Cl)cc1)c1ccc2c(c1)c(-c1cccc(Cl)c1)cc(=O)n2C [Tipifarnib, (R)-6-[amino(4-chlorophenyl)(1-methyl-1H-imidazol-5-yl)methyl]-4-(3-chlorophenyl)-1-methyl-2(1H)-quinolinone] |  |  |  | 4.9 ± 2.1 | 35.1 ± 8.1 |  |  | markedly diminished the lysosomal localization of Rheb protein | resulted in defarnesylation of HRAS and RHEB | reduced proliferation of both monolayer and spheroid cultures | not an inhibitor of geranylgeranyltransferase type 1 | resulted in the membrane delocalization of the majority of HRAS and RHEB in all three cell types | induced cytotoxicity |
